Reference: publication PMC6108829 (Environmental Health Perspectives, 2018)
Values joined by “and” are separate entries in the source; they are usually repeats but may differ in a detail not shown here. Equal values may be shown once. Read-outs that look alike come from different tables or passages of the source. Marks after values point to notes of the source that are not given here.

Assays:
[1] = in vivo; cited from earlier work
[2] = determined experimentally, ref Doerge et al. (2011), cited from earlier work
[3] = cited from earlier work
[4] = cited from earlier work; remark: listed apart in the source
[5] = ref Csanády et al. 2002; cited from earlier work
[6] = tested on: human breast-cancer cell lines; parameters: method as in Walsh et al. (2005); conditions: ref Walsh et al. (2005), read-out: EC50 for an increase of calcium ion concentration; cited from earlier work
[7] = Margin of exposure (MOE = EC50/Cmax) back-of-the-envelope calculation; parameters: species or system human
liver [8] = conditions: cited from earlier work
[9] = PBPK model parametrization and calibration with biomonitoring data; parameters: species or system human; conditions: basic BPA model
Protocol: It consists of the compartments titled serum, liver, fat, skin, gonads, brain, “richly perfused tissue,” “slowly perfused tissue”, and two single-compartment submodules for BPA-g and BPA-s in serum (see Figure 2). In the compartment titled “richly perfused tissue,” compartments were lumped with a perfusion greater than 0.1mL/min/g tissue (heart, kidneys, small and large intestine, pancreas, spleen, and stomach), and in the compartment titled “slowly perfused tissue,” compartments were lumped with a perfusion smaller than 0.1mL/min/g tissue (muscle and skeleton) ([Edginton et al. 2006]; [ICRP 2002], see Table S1 for the aggregated parameters). […] Fixing the scaling error caused the aforementioned discrepancy, and we had to review and readjust the model parameters to the biomonitoring data.
In a first step to readjust and further develop the PBPK model, we collected all studies that investigated the metabolism parameters used in the model and gathered data from different studies that measured the same metabolism routes (see Table S2). […] For this purpose, we calculated the mean relative deviation (MRD) and average fold error (AFE) to assess precision and bias of the model predictions using Equations 1 and 2 ([Sheiner and Beal 1981]), as done previously ([Ito and Houston 2005]; [Vogt 2014]; [Yang et al. 2015]). […]

small intestine = conditions: cited from earlier work
[10] = cited from earlier work; remark: listed apart in the source
[11] = ref Schönfelder et al. (2002); cited from earlier work
liver [12] = conditions: ref Kurebayashi et al. (2010), cited from earlier work
[13] = basic PBPK model, ref Yang et al. (2015)
[14] = EC50 (Kitamura et al. 2005)/highest Cmax of basic PBPK model (Table 9)

CC(C)(c1ccc(O)cc1)c1ccc(O)cc1 [BPA, bisphenol A]
AUC, mean (range), measured [1]: 15.5 (0.986–23.2) nM*h for 1.5 h
Cmax [1]: 16.5 nM
PTS richly perfused tissue/serum ([2]; value for brain used): 2.8
PTS slowly perfused tissue/serum ([2]; value for muscle used): 2.7
logPow ([3]; mean, ref Bayer 1996, Korenman 1973): 3.36
pKa ([3]; ref Bautista-Toledo et al. 2005): 10.4 and ~10.4
Oral uptake from small intestine to liver ([4]; basic PBPK model, ref Kortejärvi et al. (2007)): 2.10^a 1/h/kg BW^−0.25
EHR as glucuronide [4, 13]: 0.20^f 1/h/kg BW^−0.25
EHR unconjugated [4, 13]: 0.20^f 1/h/kg BW^−0.25
Fraction of glucuronide in liver taken up directly into serum (no EHR) [4, 13]: 0.9^f
Urinary excretion glucuronide [4, 13]: 0.35^f 1/h/kg BW^0.75
Urinary excretion ([4]; unconjugated, basic PBPK model, ref Yang et al. (2015)): 0.060^f 1/h/kg BW^0.75
EHR share ([4]; used in BPA PBPK model, ref Yang et al. (2015)): 10%
fu (unbound fraction) [5]: 0.06
EC50 [6]: 0.1 nM
MOE in gonads [7, 14]: 4,670
MOE in serum [7, 14]: 12,000
MOE in serum of females ([7]; EC50 of Walsh et al. (2005), Cmax P95/P95): 1.25
MOE in fetal serum ([7]; EC50 of Walsh et al. (2005), worst-case accumulation in the fetus): 0.179
Hepatic glucuronidation vmax ±SD (liver [8]; arithmetic mean of female and male kinetics, ref Elsby et al. (2001)): 333 ± 21 nmol/h/mg microsomal protein
Hepatic glucuronidation vmax ±SD (liver [8]; arithmetic mean of female and male kinetics, ref Kuester and Sipes (2007)): 85.2 ± 31.4 nmol/h/mg microsomal protein
Hepatic glucuronidation vmax ±SD (liver [8]; arithmetic mean of female and male kinetics, ref Mazur et al. (2010)): 190 ± 16.9 nmol/h/mg microsomal protein
Hepatic glucuronidation vmax range (liver [8]; range of published values, ref Coughlin et al. (2012), Kurebayashi et al. (2010), Trdan Lušin et al. (2012), Elsby et al. (2001), Kuester and Sipes (2007), Mazur et al. (2010), Street et al. (2017)): 1,270–16,300^c nmol/h/g liver
Km (liver [8]; read-out: Hepatic glucuronidation Km ±SD, arithmetic mean of female and male kinetics, ref Elsby et al. (2001)): 71.9 µM
Km (liver [8]; read-out: Hepatic glucuronidation Km ±SD, arithmetic mean of female and male kinetics, ref Kuester and Sipes (2007)): 8.5 µM
Km (liver [8]; read-out: Hepatic glucuronidation Km ±SD, arithmetic mean of female and male kinetics, ref Mazur et al. (2010)): 4.25 µM
Km (liver [8]; read-out: Hepatic glucuronidation Km ±SD, ref Street et al. (2017)): 23 µM
Km (liver [8]; read-out: Hepatic glucuronidation Km ±SD, ref Trdan Lušin et al. (2012)): 8.9 µM
Km (liver [8]; read-out: Hepatic glucuronidation Km, n=1, ref Kurebayashi et al. (2010)): 5.3 µM
Km (liver [8]; read-out: Hepatic glucuronidation Km, used in basic model, ref Coughlin et al. (2012)): 45.8 µM
Hepatic glucuronidation vmax - used in basic model (liver [8]; ref Coughlin et al. (2012)): 9,040^a nmol/h/g liver
Hepatic glucuronidation vmax ±SD (liver [8]; ref Coughlin et al. (2012)): 283 ± 18 nmol/h/mg microsomal protein
Hepatic glucuronidation vmax (liver [8]; ref Kurebayashi et al. (2010)): 39.8 nmol/h/mg microsomal protein
Hepatic glucuronidation vmax ±SD (liver [8]; ref Street et al. (2017)): 270 ± 60 nmol/h/mg microsomal protein
Hepatic glucuronidation vmax ±SD (liver [8]; ref Trdan Lušin et al. (2012)): 510 ± 18 nmol/h/mg microsomal protein
vmax of hepatic sulfation, times lower than that of hepatic glucuronidation [9]: about 60 times
Km (small intestine; read-out: Glucuronidation in enterocytes / intestinal glucuronidation Km, used in basic model, ref Trdan Lušin et al. (2012)): 58.4 µM
Km (small intestine; read-out: Glucuronidation in enterocytes Km range, ref Trdan Lušin et al. (2012), Mazur et al. (2010)): 58.4 to 80.1 µM
Km (small intestine; read-out: Intestinal glucuronidation Km ±SD, ref Mazur et al. (2010)): 80.1 µM
Intestinal glucuronidation vmax ±SD (small intestine; ref Mazur et al. (2010)): 29.2 ± 7.2 nmol/h/mg microsomal protein
Glucuronidation in enterocytes vmax range (small intestine; ref Trdan Lušin et al. (2012), Mazur et al. (2010)): 125–361^j nmol/h/g liver
Glucuronidation in enterocytes vmax - used in basic model (small intestine; ref Trdan Lušin et al. (2012)): 361^i nmol/h/g bw
Intestinal glucuronidation vmax ±SD (small intestine; ref Trdan Lušin et al. (2012)): 84.0 ± 6.0 nmol/h/mg microsomal protein
dermal absorption fraction ([10]; dissolved in ethanol, used for PCPs, ref Biedermann et al. 2010): 60%
reported dermal absorption ([10]; range over several studies, different study designs and solvents): 9.3% to 60
fetal plasma concentration, times higher than corresponding maternal plasma [11]: up to 7 times
Km (liver [12]; read-out: Hepatic sulfation Km): 10.1 µM
Hepatic sulfation vmax (liver [12]): 149^n nmol/h/g liver
